Structures can show the parent of a compound that is named as a salt.
Target: Recombinant Human (rh) DPP1 (Homo sapiens, UniProt P53634)
Test: Fluorescence Assay for Recombinant Human (rh) DPP1
Assay type: biochemical
Settings: rhDPP1, substrate H-Gly-Arg-AMC, pH5.0, 22° C., pre-incubated 30-60 min; read-out: DPP1 activity, pIC50 (converted)
Procedure: Fluorescence Assay for Recombinant Human (rh) DPP1
The activity of DPP1 was determined by measuring the enzymatic release of aminomethyl coumarin (AMC) from the peptide substrate (H-Gly-Arg-AMC), which leads to an increase in fluorescence intensity at λex=350 nm and λem=450 nm. The assay was carried out in black 384 well plates in a final volume of 50 μl at 22° C. The assay conditions contained the following: 25 mM piperazine buffer pH5.0; 50 mM NaCl, 5 mM DTT; 0.01% (v/v) Triton X-100; 100 μM H-Gly-Arg-AMC and rhDPP1 ([…]). […] A standard DPP1 inhibitor (vinyl sulfone, see below, or Example 24 from WO2009/074829) was used as a positive control in the assay. Routinely, inhibitors were pre-incubated with rhDPP1 for 30-60 min prior to the addition of the peptide substrate to start the reaction for a further 60 min at 22° C. After that the plates were immediately read in a fluorescence plate reader using the above emission and excitation wavelengths [modified from Kam, C M, Gotz, M G, Koot, G, McGuire, M J, Thiele, D L, Hudig, D & Powers, J C (2004). Arch Biochem Biophys, 427, 123-134 & McGuire, M J, Lipsky, P E & Thiele, D L (1992). Arch Biochem Biophys, 295, 280-288].

Recombinant Human (rh) DPP1, sequence (P53634 231-394 limits assumed): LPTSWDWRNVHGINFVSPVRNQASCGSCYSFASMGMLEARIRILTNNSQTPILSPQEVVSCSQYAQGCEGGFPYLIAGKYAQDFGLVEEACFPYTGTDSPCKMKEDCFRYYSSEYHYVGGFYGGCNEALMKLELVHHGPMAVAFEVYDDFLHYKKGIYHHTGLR
Recombinant Human (rh) DPP1, sequence (P53634 25-134 limits assumed): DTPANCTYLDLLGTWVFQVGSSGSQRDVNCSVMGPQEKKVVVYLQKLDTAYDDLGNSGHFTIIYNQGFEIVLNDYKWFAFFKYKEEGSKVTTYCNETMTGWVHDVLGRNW
Recombinant Human (rh) DPP1, sequence (P53634 395-463 limits assumed): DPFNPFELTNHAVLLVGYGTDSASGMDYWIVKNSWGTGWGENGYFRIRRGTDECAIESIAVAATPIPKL

COc1ccc(-c2ccc(C[C@@H](C#N)NC(=O)C3(N)CCOCC3)cc2)cc1 [Example 20, (S)-4-Amino-N-(1-cyano-2-(4′-methoxybiphenyl-4-yl)ethyl)tetrahydro-2H-pyran-4-carboxamide]
IC50: 0.794 nM

Cn1c(=O)oc2ccc(-c3ccc(C[C@@H](C#N)NC(=O)C4(N)CCOCC4)cc3)cc21 [Example 17, (S)-4-amino-N-(1-cyano-2-(4-(3-methyl-2-oxo-2,3-dihydrobenzo[d]oxazol-5-yl)phenyl)ethyl)tetrahydro-2H-pyran-4-carboxamide]
IC50: 0.316 nM

N#C[C@H](Cc1ccc(-c2ccc(F)cc2)cc1)NC(=O)C1(N)CCOCC1 [Example 4, (S)-4-Amino-N-(1-cyano-2-(4′-fluorobiphenyl-4-yl)ethyl)tetrahydro-2H-pyran-4-carboxamide]
IC50: 0.398 nM

CS(=O)(=O)c1cccc(-c2ccc(C[C@@H](C#N)NC(=O)C3(N)CCOCC3)cc2)c1 [Example 23, (S)-4-Amino-N-(1-cyano-2-(3′-(methylsulfonyl)biphenyl-4-yl)ethyl)tetrahydro-2H-pyran-4-carboxamide trifluoroacetic acid salt]
IC50: 0.631 nM

N#C[C@H](Cc1ccc(-c2ccc(S(=O)(=O)N3CCC3)cc2)cc1)NC(=O)C1(N)CCOCC1 [Example 7, (S)-4-Amino-N-(2-(4′-(azetidin-1-ylsulfonyl)biphenyl-4-yl)-1-cyanoethyl)tetrahydro-2H-pyran-4-carboxamide trifluoroacetic acid salt]
IC50: 0.631 nM

CN1C(=O)COc2ccc(-c3ccc(C[C@@H](C#N)NC(=O)C4(N)CCOCC4)cc3)cc21 [Example 10, (S)-4-Amino-N-(1-cyano-2-(4-(4-methyl-3-oxo-3,4-dihydro-2H-benzo[b][1,4]oxazin-6-yl)phenyl)ethyl)tetrahydro-2H-pyran-4-carboxamide trifluoroacetic acid salt]
IC50: < 0.316 nM

CN1Cc2cc(-c3ccc(C[C@@H](C#N)NC(=O)C4(N)CCOCC4)cc3)ccc2C1=O [Example 31, (S)-4-Amino-N-(1-cyano-2-(4-(2-methyl-1-oxoisoindolin-5-yl)phenyl)ethyl)tetrahydro-2H-pyran-4-carboxamide]
IC50: 1.58 nM

COCCn1c(=O)sc2ccc(-c3ccc(C[C@@H](C#N)NC(=O)C4(N)CCOCC4)cc3)cc21 [Example 9, (S)-4-Amino-N-(1-cyano-2-(4-(3-(2-methoxyethyl)-2-oxo-2,3-dihydrobenzo[d]thiazol-5-yl)phenyl)ethyl)tetrahydro-2H-pyran-4-carboxamide trifluoroacetic acid salt]
IC50: < 0.316 nM

N#Cc1cc(-c2ccc(C[C@@H](C#N)NC(=O)C3(N)CCOCC3)cc2)ccc1F [Example 22, (S)-4-Amino-N-(1-cyano-2-(3′-cyano-4′-fluorobiphenyl-4-yl)ethyl)tetrahydro-2H-pyran-4-carboxamide]
IC50: < 0.398 nM

CC(C)S(=O)(=O)c1ccc(-c2ccc(C[C@@H](C#N)NC(=O)C3(N)CCOCC3)cc2)cc1 [Example 5, (S)-4-Amino-N-(1-cyano-2-(4′-(isopropylsulfonyl)biphenyl-4-yl)ethyl)tetrahydro-2H-pyran-4-carboxamide]
IC50: 1 nM

COCCCn1c(=O)oc2ccc(-c3ccc(C[C@@H](C#N)NC(=O)C4(N)CCOCC4)cc3)cc21 [Example 11, (S)-4-Amino-N-(1-cyano-2-(4-(3-(3-methoxypropyl)-2-oxo-2,3-dihydrobenzo[d]oxazol-5-yl)phenyl)ethyl)tetrahydro-2H-pyran-4-carboxamide trifluoroacetic acid salt]
IC50: < 0.316 nM

CN1Cc2ccc(-c3ccc(C[C@@H](C#N)NC(=O)C4(N)CCOCC4)cc3)cc2C1=O [Example 30, (S)-4-Amino-N-(1-cyano-2-(4-(2-methyl-3-oxoisoindolin-5-yl)phenyl)ethyl)tetrahydro-2H-pyran-4-carboxamide trifluoroacetic acid salt]
IC50: 5.01 nM

CCS(=O)(=O)c1ccc(-c2ccc(C[C@@H](C#N)NC(=O)C3(N)CCOCC3)cc2)cc1 [Example 2, (S)-4-Amino-N-(1-cyano-2-(4′-(ethylsulfonyl)biphenyl-4-yl)ethyl)tetrahydro-2H-pyran-4-carboxamide]
IC50: 0.794 nM

COCCn1c(=O)oc2ccc(-c3ccc(C[C@@H](C#N)NC(=O)C4(N)CCOCC4)cc3)cc21 [Example 24, (S)-4-Amino-N-(1-cyano-2-(4-(3-(2-methoxyethyl)-2-oxo-2,3-dihydrobenzo[d]oxazol-5-yl)phenyl)ethyl)tetrahydro-2H-pyran-4-carboxamide trifluoroacetic acid salt]
IC50: 0.2 nM

N#C[C@H](Cc1ccc(-c2ccc3c(c2)CNC3=O)cc1)NC(=O)C1(N)CCOCC1 [Example 15, (S)-4-Amino-N-(1-cyano-2-(4-(1-oxoisoindolin-5-yl)phenyl)ethyl)tetrahydro-2H-pyran-4-carboxamide]
IC50: 0.126 nM

N#Cc1cccc(-c2ccc(C[C@@H](C#N)NC(=O)C3(N)CCOCC3)cc2)c1 [Example 8, (S)-4-Amino-N-(1-cyano-2-(3′-cyanobiphenyl-4-yl)ethyl)tetrahydro-2H-pyran-4-carboxamide]
IC50: 0.794 nM

CS(=O)(=O)Oc1ccc(-c2ccc(C[C@@H](C#N)NC(=O)C3(N)CCOCC3)cc2)cc1 [Example 6, (S)-4′-(2-(4-Aminotetrahydro-2H-pyran-4-carboxamido)-2-cyanoethyl)biphenyl-4-yl methanesulfonate trifluoroacetic acid salt, methanesulfonate trifluoroacetic acid …]
IC50: 0.398 nM

CN1C(=O)Cc2ccc(-c3ccc(C[C@@H](C#N)NC(=O)C4(N)CCOCC4)cc3)cc21 [Example 21, (S)-4-Amino-N-(1-cyano-2-(4-(1-methyl-2-oxoindolin-6-yl)phenyl)ethyl)tetrahydro-2H-pyran-4-carboxamide]
IC50: 0.251 nM

N#C[C@H](Cc1ccc(-c2ccc3c(c2)CS(=O)(=O)C3)cc1)NC(=O)C1(N)CCOCC1 [Example 34, 4-Amino-N-{(1S)-1-cyano-2-[4-(2,2-dioxido-1,3-dihydro-2-benzothiophen-5-yl)phenyl]ethyl}tetrahydro-2H-pyran-4-carboxamide]
IC50: 1.26 nM

CN1CCN(S(=O)(=O)c2ccc(-c3ccc(C[C@@H](C#N)NC(=O)C4(N)CCOCC4)cc3)cc2)CC1 [Example 29, (S)-4-Amino-N-(1-cyano-2-(4′-(4-methylpiperazin-1-ylsulfonyl)biphenyl-4-yl)ethyl)tetrahydro-2H-pyran-4-carboxamide]
IC50: 0.631 nM

N#C[C@H](Cc1ccc(-c2ccc(C(F)(F)F)cc2)cc1)NC(=O)C1(N)CCOCC1 [Example 1, (S)-4-Amino-N-(1-cyano-2-(4′-(trifluoromethyl)biphenyl-4-yl)ethyl)tetrahydro-2H-pyran-4-carboxamide]
IC50: 0.631 nM

CN1Cc2cc(-c3ccc(C[C@@H](C#N)NC(=O)C4(N)CCOCC4)cc3)cnc2C1=O [Example 32, (S)-4-Amino-N-(1-cyano-2-(4-(6-methyl-7-oxo-6,7-dihydro-5H-pyrrolo[3,4-b]pyridin-3-yl)phenyl)ethyl)tetrahydro-2H-pyran-4-carboxamide]
IC50: 5.01 nM

CN1C(=O)CSc2cc(-c3ccc(C[C@@H](C#N)NC(=O)C4(N)CCOCC4)cc3)ccc21 [Example 28, (S)-4-Amino-N-(1-cyano-2-(4-(4-methyl-3-oxo-3,4-dihydro-2H-benzo[b][1,4]thiazin-7-yl)phenyl)ethyl)tetrahydro-2H-pyran-4-carboxamide]
IC50: 0.398 nM

— patent US8193239B2, “Substituted 1-cyanoethylheterocyclylcarboxamide compounds” (AstraZeneca AB, priority 2009, dated 2012)
